# Where “and” joins values, the source holds several entries; their conditions need not be identical. Equal entries are not always repeated. Marks after values point to notes of the source that are not given here.
# How the values were obtained:
# mice [1] = experiment: Acute toxicity, intragastric administration (maximum tolerated dose); settings: for average body weight of mice / dietary change-by-day of mice: PDHM MTD 3750 mg/kg i.g.
# Balb/C mice [2] = experiment: Anti-alcoholism test (agent 30 min after alcohol); type: in vivo
# Description: Anti-Alcoholism Tests • Groups design and treatment before experiment are as the same as that in Deintoxication test. […]
# physchem = settings: water
# Balb/C mice [3] = experiment: Deintoxication test (agent 30 min before alcohol)
# Balb/C mice [4] = experiment: Plasma EtOH concentration assay; type: in vivo; settings: intragastric 2 mg/kg
# Method: Plasma EtOH Concentration Assay. • Blood samples from the tail vein of mice at different time points (0, 15, 30, 45, 60, 90, 120, 240, 480 and 720 minutes) after EtOH (30% ethanol, 0.2 ml/kg bw) or TDHM (2 mg/kg bw), PDHM (2 mg/kg bw) or DHM (2 mg/kg bw) gavage were collected for plasma EtOH concentrations (plasma [EtOH]) assays. (“BW” or “bw”: body weight) • Briefly, the Balb/C mice were put into a restraint tube and the tail was warmed at 37° C. The tail vein at the tip of the tail was punched with a sharp blade. Approximately 0.2 ml venous blood was dropped to a capillary blood collection tube containing lithium heparin (Ram Scientific). Blood samples were centrifuged at 2500 rpm for 20 min. The supernatant was collected and stored at −80° C. until assay. The EtOH content of each blood sample was measured in duplicate along with EtOH standards using the alcohol oxidase reaction procedures (EnzyChrom™ Ethanol Acid Assay Kit, ECET-100) (Liang et al., 2007). The sample preparations were the same as described above.
# Balb/C mice [5] = experiment: Climbing net test; type: in vivo; settings: 2 mg/kg gavage 30 min before alcohol; vertical metal net
# Method: Climbing Net Test • Groups design and treatment before experiment are as the same as that in deintoxication test. […] 30 minutes later all mice administrated alcohol (liquid Erguotou, ethonol concentration was diluted to 30%) 0.2 mL/kg BW and placed on a vertical metal net and measured the time when mice climbed on net.
# mice [6] = experiment: Acute toxicity, intraperitoneal administration (mortality, LD50, body weight, dietary); type: in vivo; settings: for Dead number: 20 mice; for Dead number / mortality: 7 days
# Method: Acute Toxicity • Compounds PDHM/TDHM.
# 140 mice were divided into 7 groups (n=20), each group include 10 males and 10 females, they were treated with different concentrations of dosages and observed for 7 days. Specific experimental groups and experimental results were noted below. Note: Section 1-6 group compound are PDHM groups, and group 7 is a negative control group.
# 140 mice were divided into 7 groups (n=20), each group include 10 males and 10 females, they were treated with different concentrations of dosage and observed for 7 days. Note: Section 1-6 group compound are PDHM groups, and group 7 is a negative control group.
# [7] = 2 mg/kg gavage 30 min after 30% ethanol
# [8] = 2 mg/kg gavage 30 min after 30% ethanol, 20 mice
# [9] = 2 mg/kg gavage 30 min before 30% ethanol
# [10] = agents intragastric 30 minutes before drinking
compound,measurement,setting,value
"O=C1c2c(O)cc(O)cc2O[C@H](c2cc(O)c(O)c(O)c2)[C@H]1O [PDHM, piperidinium 2,3-dihydroxy-5-((2R,3R)-3,5,7-trihydroxy-4-oxochroman-2-yl)phenolate]",average body weight of mice,mice [1]; D1,1.97 g
same,dietary change-by-day of mice,mice [1]; D1,5.98 g
same,average body weight of mice,mice [1]; D2,3.47 g
same,dietary change-by-day of mice,mice [1]; D2,6.1 g
same,average body weight of mice,mice [1]; D3,4.77 g
same,dietary change-by-day of mice,mice [1]; D3,6.03 g
same,average body weight of mice,mice [1]; D4,6.37 g
same,dietary change-by-day of mice,mice [1]; D4,6.14 g
same,average body weight of mice,mice [1]; D5,7.38 g
same,dietary change-by-day of mice,mice [1]; D5,6.48 g
same,average body weight of mice,mice [1]; D6,8.41 g
same,dietary change-by-day of mice,mice [1]; D6,6.32 g
same,average body weight of mice,mice [1]; D7,9.67 g
same,dietary change-by-day of mice,mice [1]; D7,6.57 g
same,"pathological examination of stomach, liver, kidney","mice [1]; mice at MTD, end of 7-day observation","no obvious degeneration, necrosis and other changes"
same,"pathology changes in livers, kidneys, hearts and lungs",mice [1]; mice of the toxicity experiments,No degeneration and necrosis pathology changes
same,deaths in preliminary experiments,"mice [1]; mice, different doses, gavage once, observed 7 days",no deaths occurred
same,deaths during the observation period at MTD,"mice [1]; mice, gavage three times a day, 7 days",No deaths
same,Sleep time M ± SD,Balb/C mice [2]; [7],107.71 ± 36.87*^& min
same,Tolerance time M ± SD,Balb/C mice [2]; [7],22.14 ± 15 min
same,Dead number,Balb/C mice [2]; [8],2 piece
same,Rate of drunk,Balb/C mice [2]; [8],10%
same,sleep time in drunk mice comparing with DHM,Balb/C mice [2]; 2 mg/kg gavage 30 min after alcohol,remarkably shorten
same,solubility,physchem,5000 µg/mL
same,Sleep time M ± SD,Balb/C mice [3]; [9],125.33 ± 33.75 min
same,Tolerance time M ± SD,Balb/C mice [3]; [9],25.43 ± 10.80 min
same,Dead number,"Balb/C mice [3]; 2 mg/kg gavage 30 min before 30% ethanol, 20 mice",2 piece
same,holding time comparing with DHM,Balb/C mice [3]; [10],shorten
same,tolerance time of righting reflex disappearing comparing with DHM,Balb/C mice [3]; [10],obviously prolonged
same,blood alcohol concentration vs control group treated with saline,Balb/C mice [4],significantly decreased
same,reduction of blood alcohol concentration compared with DHM,Balb/C mice [4],better beneficial effect than DHM
same,climbing,Balb/C mice [5],392.25 ± 76.67^#& min
same,Dead number,mice [6]; PDHM 853.27 mg/kg i.p.,0
same,mortality,mice [6]; PDHM 853.27 mg/kg i.p.,0%
same,average dietary of mice,"mice [6]; PDHM 853.27 mg/kg i.p., D1",3.79 g
same,average dietary of mice,"mice [6]; PDHM 853.27 mg/kg i.p., D2",4.58 g
same,average dietary of mice,"mice [6]; PDHM 853.27 mg/kg i.p., D3",3.6 g
same,average dietary of mice,"mice [6]; PDHM 853.27 mg/kg i.p., D4",4.92 g
same,average dietary of mice,"mice [6]; PDHM 853.27 mg/kg i.p., D5",5.76 g
same,average dietary of mice,"mice [6]; PDHM 853.27 mg/kg i.p., D6",5.31 g
same,average dietary of mice,"mice [6]; PDHM 853.27 mg/kg i.p., D7",5.83 g
same,Dead number,mice [6]; PDHM 874.6 mg/kg i.p.,6
same,mortality,mice [6]; PDHM 874.6 mg/kg i.p.,30%
same,average dietary of mice,"mice [6]; PDHM 874.6 mg/kg i.p., D1",3.91 g
same,average dietary of mice,"mice [6]; PDHM 874.6 mg/kg i.p., D2",4.73 g
same,average dietary of mice,"mice [6]; PDHM 874.6 mg/kg i.p., D3",5.81 g
same,average dietary of mice,"mice [6]; PDHM 874.6 mg/kg i.p., D4",5.43 g
same,average dietary of mice,"mice [6]; PDHM 874.6 mg/kg i.p., D5",4.97 g
same,average dietary of mice,"mice [6]; PDHM 874.6 mg/kg i.p., D6",5.88 g
same,average dietary of mice,"mice [6]; PDHM 874.6 mg/kg i.p., D7",5.72 g
same,Dead number,mice [6]; PDHM 896.47 mg/kg i.p.,10
same,mortality,mice [6]; PDHM 896.47 mg/kg i.p.,50%
same,average dietary of mice,"mice [6]; PDHM 896.47 mg/kg i.p., D1",3.35 g
same,average dietary of mice,"mice [6]; PDHM 896.47 mg/kg i.p., D2",4.92 g
same,average dietary of mice,"mice [6]; PDHM 896.47 mg/kg i.p., D3",5.78 g
same,average dietary of mice,"mice [6]; PDHM 896.47 mg/kg i.p., D4",6.04 g
same,average dietary of mice,"mice [6]; PDHM 896.47 mg/kg i.p., D5",5.72 g
same,average dietary of mice,"mice [6]; PDHM 896.47 mg/kg i.p., D6",5.34 g
same,average dietary of mice,"mice [6]; PDHM 896.47 mg/kg i.p., D7",5.65 g
same,Dead number,mice [6]; PDHM 918.88 mg/kg i.p.,12
same,mortality,mice [6]; PDHM 918.88 mg/kg i.p.,60%
same,average dietary of mice,"mice [6]; PDHM 918.88 mg/kg i.p., D1",4.21 g
same,average dietary of mice,"mice [6]; PDHM 918.88 mg/kg i.p., D2",4.79 g
same,average dietary of mice,"mice [6]; PDHM 918.88 mg/kg i.p., D3",5.21 g
same,average dietary of mice,"mice [6]; PDHM 918.88 mg/kg i.p., D4",6.08 g
same,average dietary of mice,"mice [6]; PDHM 918.88 mg/kg i.p., D5",5.83 g
same,average dietary of mice,"mice [6]; PDHM 918.88 mg/kg i.p., D6",6.24 g
same,average dietary of mice,"mice [6]; PDHM 918.88 mg/kg i.p., D7",5.13 g
same,Dead number,mice [6]; PDHM 941.85 mg/kg i.p.,18
same,mortality,mice [6]; PDHM 941.85 mg/kg i.p.,90%
same,average dietary of mice,"mice [6]; PDHM 941.85 mg/kg i.p., D1",4.76 g
same,average dietary of mice,"mice [6]; PDHM 941.85 mg/kg i.p., D2",3.92 g
same,average dietary of mice,"mice [6]; PDHM 941.85 mg/kg i.p., D3",4.66 g
same,average dietary of mice,"mice [6]; PDHM 941.85 mg/kg i.p., D4",5.82 g
same,average dietary of mice,"mice [6]; PDHM 941.85 mg/kg i.p., D5",6.15 g
same,average dietary of mice,"mice [6]; PDHM 941.85 mg/kg i.p., D6",5.79 g
same,average dietary of mice,"mice [6]; PDHM 941.85 mg/kg i.p., D7",5.43 g
same,Dead number,mice [6]; PDHM 965.4 mg/kg i.p.,20
same,mortality,mice [6]; PDHM 965.4 mg/kg i.p.,100%
same,average dietary of mice,"mice [6]; PDHM 965.4 mg/kg i.p., D1",0 g
same,average dietary of mice,"mice [6]; PDHM 965.4 mg/kg i.p., D2",0 g
same,average dietary of mice,"mice [6]; PDHM 965.4 mg/kg i.p., D3",0 g
same,average dietary of mice,"mice [6]; PDHM 965.4 mg/kg i.p., D4",0 g
same,average dietary of mice,"mice [6]; PDHM 965.4 mg/kg i.p., D5",0 g
same,average dietary of mice,"mice [6]; PDHM 965.4 mg/kg i.p., D6",0 g
same,average dietary of mice,"mice [6]; PDHM 965.4 mg/kg i.p., D7",0 g
same,effect on dietary and body weight,mice [6]; mice,no significant effect
same,LD50,"mice [6]; mice, i.p., observed 7 days",888.79 to 914.58 mg/kg and 748.69 mg/kg
